Measured values taken from patent US6548687B1, “Chromium L-threonate, process for preparation of the same and their use” (priority 1998, dated 2003).
Read-outs that look alike come from different tables or passages of the source.

Experiments:
[1] = for Stable Constant: coordination compound of L-threonic acid and chromic ion, deduced with computer simulation from titration curves; for pH: pH range of the coordination compound model, deduced with computer simulation
[2] = Precipitation of chromic hydroxide as a function of pH; format: physicochemical

SMILES: O=C(O)[C@H](O)[C@@H](O)CO.[O]=[Cr](=[O])([OH])[OH] [Model A, chromate L-threonate]
- Stable Constant ([1]; listed as A): −4.42 ± 0.14
- pH ([1]; listed as A): ˜4.5

SMILES: O=C(O)[C@H](O)[C@@H](O)CO.[O]=[Cr](=[O])([OH])[OH] [Model B, chromate L-threonate]
- Stable Constant ([1]; listed as B): −0.74 ± 0.34
- pH ([1]; listed as B): 3.5-4.0

SMILES: O=C(O)[C@H](O)[C@@H](O)CO.[O]=[Cr](=[O])([OH])[OH] [Model C, chromate L-threonate]
- Stable Constant ([1]; listed as C): −9.35 ± 0.26
- pH ([1]; listed as C): ˜6.0

SMILES: O=C(O)[C@H](O)[C@@H](O)CO.[O]=[Cr](=[O])([OH])[OH] [chromate L-threonate]
- precipitate of chromic hydroxide ([2]; even in basic condition): no precipitate
- dissolution (in alcohol and ether): no dissolution
- dissolution (in water): dissolution in water

SMILES: [Cl][Cr]([Cl])[Cl] [chromic chloride]
- pH at which solution forms precipitate [2]: ~4

SMILES: O=S(=O)([O-])[O-].O=S(=O)([O-])[O-].O=S(=O)([O-])[O-].[Cr+3].[Cr+3] [chromic sulphate]
- pH at which solution forms precipitate [2]: ~4
